Measured values from patent USRE41920E1, “Isobutylgaba and its derivatives for the treatment of pain” (Warner-Lambert Company LLC, priority 1997, dated 2010).

What was measured:
[1] = system: formalin-induced hind paw licking and biting; experiment: Rat paw formalin test; type: in vivo; settings: for effect on the early phase of the formalin response / minimum effective dose (MED), block of licking/biting behavior during the late phase of the formalin response: s.c. 1 hour before formalin; for effect on the early phase of the formalin response: early phase (0-10 minutes), any of the doses tested; for minimum effective dose (MED), block of licking/biting behavior during the late phase of the formalin response: late phase (10-45 minutes)
Procedure: Test compounds were administered s.c. 1 hour before an intraplantar injection of 50 μL formalin. The time spent licking/biting the injected paw during the early and late phases was scored.
Male Sprague-Dawley rats (70-90 g) were habituated to perspex observation chambers (24 cm×24 cm×24 cm) for at least 15 minutes prior to testing. Formalin-induced hind paw licking and biting was initiated by a 50 μL subcutaneous injection of a 5% formalin solution (5% formaldehyde in isotonic saline) into the plantar surface of the left hind paw. Immediately following the formalin injection, licking/biting of the injected hind paw was scored in 5 minute bins for 60 minutes. The results are expressed as mean combined licking/biting time for the early phase (0-10 minutes) and late phase (10-45 minutes).

[2] = system: thermal hyperalgesia after incision of the rat plantaris muscle; experiment: Thermal hyperalgesia in the rat postoperative pain model (rat plantar test); type: in vivo; settings: for MED, block of development of thermal hyperalgesia: single dose s.c. before surgery (1 hour; morphine 0.5 hour)
Procedure: Gabapentin or S-(+)-3 isobutylgaba was administered 1 hour before surgery. Morphine was administered 0.5 hour before surgery. Thermal paw withdrawal latencies (PWL) were determined for both ipsilateral and contralateral paws using the rat plantar test. For clarity contralateral paw data for drug-treated animals is not shown. Baseline (BL) measurements were taken before surgery and PWL were reassessed 2, 24, 48, and 72 hours postsurgery. […] In the figure, —●— is vehicle contralateral, —◯— is vehicle ispsilateral, —Δ— is 1 mg/kg morphine, —▭— is 3, and —⋄— is 6 for morphine in 4a. In 4b, —Δ— is 3, —▭— is 10, and —⋄— is 30 for gabapentin. In 4c, —Δ— is 3 mg/kg, —▭— is 10, and —⋄— is 30 for S-(+)-isobutylgaba.
(§1) S-(+)-3-Isobutylgaba (S-(+)-IBG) was administered 1 hour after surgery. Thermal paw withdrawal latencies, determined using the rat plantar test, and paw withdrawal thresholds to von Frey hair filaments, were determined in separate groups of animals for both ipsilateral and contralateral paws. For clarity only the ipsilateral paw data is shown. Baseline (BL) measurements were taken before surgery and withdrawal thresholds were reassessed up to 6 hours postsurgery.
(§2) Male Sprague-Dawley rats (250-300 g), obtained from Bantin and Kingmen, (Hull, U. K.) were used in all experiments. Before surgery, animals were housed in groups of 6 under a 12-hour light/dark cycle (lights on at 07 hour 00 minute) with food and water ad libitum. Postoperatively, animals were housed in pairs on “Aqua-sorb” bedding consisting of air laid cellulose (Beta Medical and Scientific, Sale, U.K.) under the same conditions. All experiments were carried out by an observer blind to drug treatments.
(§3) Animals were anaesthetized with 2% isofluorane and 1.4 […] mixture which was maintained during surgery via a nose cone. The plantar surface of the right hind paw was prepared with 50% ethanol, and a 1-cm longitudinal incision was made through skin and fascia, starting 0.5 cm from the edge of the heel and extending towards the toes. The plantaris muscle was elevated using forceps and incised longitudinally. The wound was closed using two simple sutures of braided silk with a FST-02 needle. The wound site was covered with Terramycin spray and Auromycin powder. […] The sutures were removed after 48 hours.
Thermal hyperalgesia was assessed using the rat plantar test (Ugo Basile, Italy) following a modified method of Hargreaves, et al., 1988. Rats were habituated to the apparatus which consisted of three individual perspex boxes on an elevated glass table. A mobile radiant heat source was located under the table and focused onto the hind paw and paw withdrawal latencies (PWL) were recorded. There was an automatic cut off point of 22.5 seconds to prevent tissue damage. PWLs were taken 2 to 3 times for both hind paws of each animal, the mean of which represented baselines for right and left hind paws. The apparatus was calibrated to give a PWL of approximately 10 seconds. PWL(s) were reassessed following the same protocol as above 2, 24, 48, and 72 hours postoperatively.
(§4) Data obtained for thermal hyperalgesia was subjected to a one-way (analysis of variance) ANOVA followed by a Dunnett's t-test. Tactile allodynia results obtained with the von Frey hairs were subjected to an individual Mann Whitney t-test.

[3] = system: carrageenin-induced mechanical hyperalgesia; experiment: Carrageenin-induced mechanical hyperalgesia (rat paw pressure test); type: in vivo; settings: for MED, antagonism of carrageenin-induced mechanical hyperalgesia: s.c. 3.5 hours after carrageenin
Procedure: Nociceptive pressure thresholds were measured in the rat using the paw pressure test. Baseline (BL) measurements were taken before animals were administered with 100 μL of 2% carrageenin by intraplantar injection. Results are shown as mean (±SEM) of 8 animals per group.
(§5) On the test Day, 2 to 3 baseline measurements were taken before rats (male Sprague-Dawley 70-90 g) were administered with 100 μL of 2% carrageenin by intraplantar injection into the right hind paw. Animals were dosed with the test drug after development of peak hyperalgesia. Separate groups of animals were used for the mechanical and thermal hyperalgesia studies.
Nociceptive pressure thresholds were measured in the rat paw pressure test using an analgesimeter (Ugo Basile). A cut-off point of 250 g was used to prevent any damage to the paw. The intraplantar injection of carrageenin produced a reduction in the nociceptive pressure threshold between 3 and 5 hours after injection, indicating induction of hyperalgesia. […] Gabapentin (3-300 mg/kg, s.c.) and CI-1008 (1-100 mg/kg, s.c.) dose-dependently antagonized the hyperalgesia, with respective MED of 10 and 3 mg/kg (FIG. 2).

[4] = system: carrageenin-induced thermal hyperalgesia; experiment: Carrageenin-induced thermal hyperalgesia (Hargreaves model); type: in vivo, rat; settings: s.c. 2.5 hours after carrageenin; PWL at 3 and 4 hours
Procedure: Nociceptive thermal thresholds were measured in the rat using the Hargreaves apparatus. Baseline (BL) measurements were taken before animal s were administered with 100 μL of 2% carrageenin by intraplantar injection. Results are shown as mean (±SEM) of 8 animals per group.
as §5
Baseline paw withdrawal latencies (PWL) were obtained for each rat using the Hargreaves model. Carrageenin was injected as described above. Animals were then tested for thermal hyperalgesia at 2 hours postcarrageenin administration. Gabapentin (10-100 mg/kg) or CI-1008 (1-30 mg/kg) was administered s.c. 2.5 hours after carrageenin, and PWL were reevaluated at 3 and 4 hours postcarrageenin administration. Carrageenin induced a significant reduction in paw withdrawal latency at 2, 3, and 4 hours following injection, indicating the induction of thermal hyperalgesia (FIG. 3). Gabapentin and CI-1008 dose-dependently antagonized the hyperalgesia with a MED of 30 and 3 mg/kg (FIG. 3).

[5] = system: tactile allodynia after incision of the rat plantaris muscle; experiment: Tactile allodynia in the rat postoperative pain model (von Frey hairs); type: in vivo; settings: for effect on tactile allodynia scores in the contralateral paw: up to the highest dose tested; for MED, prevention of development of tactile allodynia: s.c. 1 hour before surgery
Procedure: Gabapentin or S-(+)-3-isobutylgaba was administered 1 hour before surgery. Morphine was administered 0.5 hour before surgery. Paw withdrawal thresholds to von Frey hair filaments were determined for both ipsilateral and contralateral paws. For clarity, contralateral paw data for drug-treated animals is not shown. Baseline (BL) measurements were taken before surgery, and withdrawal thresholds were reassessed 3, 25, 49, and 73 hours postsurgery. […] In FIG. 5, —●— is vehicle contralateral, —◯— is vehicle ispsilateral. For morphine (5a), —Δ— is 1 mg/kg, —▭— is 3, and —⋄— is 16.
as §1, §2, §3
Tactile allodynia was measured using Semmes-Weinstein von Frey hairs (Stoelting, Ill., U.S.A.). Animals were placed into wire-mesh-bottom cages allowing access to the underside of their paws. The animals were habituated to this environment prior to the start of the experiment. Tactile allodynia was tested by touching the plantar surface of the animals hind paw with von Frey hairs in ascending order of force (0.7, 1.2, 1.5, 2, 3.6, 5.5, 8.5, 11.8, 15. 1, and 29 g) until a paw withdrawal response was elicited. Each von Frey hair was applied to the paw for 6 seconds, or until a response occurred. Once a withdrawal response was established, the paw was retested, starting with the next descending von Frey hair until no response occurred. The highest force of 29 g lifted the paw as well as eliciting a response, thus represented the cut-off point. Each animal had both hind paws tested in this manner. The lowest amount of force required to elicit a response was recorded as withdrawal threshold in grams. When compounds were administered before surgery, the same animals were used to study drug effects on tactile, allodynia, and thermal hyperalgasia, with each animal being tested for tactile allodynia 1 hour after thermal hyperalgesia. Separate groups of animals were used for examination of tactile allodynia and thermal hyperalgesia when S-(+)-3-isobutylgaba was administered after surgery.
as §4

[6] = 30 mg/kg s.c. 1 hour before surgery
[7] = 30 mg/kg, 1 hour before surgery

Row | Compound | blockade of the late phase of the formalin response ([1]; 100 mg/kg s.c. 1 hour before formalin) | duration of effect on thermal hyperalgesia [2, 6] | effect on PWL of the contralateral paw in the thermal hyperalgesia test ([2]; up to the highest dose tested) | MED, block of development of thermal hyperalgesia [2] [mg/kg] | block of induction and maintenance of hyperalgesia ([2]; summary statement) | MED, antagonism of carrageenin-induced mechanical hyperalgesia [3] [mg/kg] | MED, antagonism of carrageenin-induced thermal hyperalgesia [4] [mg/kg] | duration of blockade of the allodynia response [5, 7] [days] | effect on tactile allodynia scores in the contralateral paw [5] | MED, prevention of development of tactile allodynia [5] [mg/kg] | block of induction and maintenance of allodynia ([5]; summary statement) | effect on the early phase of the formalin response [1] | minimum effective dose (MED), block of licking/biting behavior during the late phase of the formalin response [1] [mg/kg] | duration of prevention of the hyperalgesic response [2, 6] [h] | duration of effect on tactile allodynia ([5]; 10 mg/kg, 1 hour before surgery) [h] | duration of effect on tactile allodynia [5, 7] [h] | effect on PWL of the contralateral paw in the thermal hyperalgesia test ([2]; 6 mg, s.c., data not shown) | duration of antagonism of development of thermal hyperalgesia ([2]; 1-6 mg/kg s.c. 0.5 hour before surgery) [h] | effect on carrageenin-induced mechanical hyperalgesia ([3]; 3 mg/kg, s.c.) | duration of prevention of development of tactile allodynia ([5]; highest dose of 6 mg/kg, 0.5 hour before surgery) [h]
1 | CC(C)CC(CN)CC(=O)O (centres unmarked) [3-aminomethyl-5-methyl-hexanoic acid, 3-aminomethyl-5-methylhexanoic acid] | only a modest blockade |  |  |  |  |  |  |  |  |  |  |  |  |  |  |  |  |  |  | 
2 | CC(C)C[C@H](CN)CC(=O)O [CI-1008, (S)-3-(aminomethyl)-5-methylhexanoic acid] |  | up to 3 days | did not affect PWL | 3 | completely blocked | 3 | 3 | 3 | did not affect | 10 | completely blocked | neither of the compounds affected the early phase | 10 |  |  |  |  |  |  | 
3 | NCC1(CC(=O)O)CCCCC1 [Gabapentin, 1-(aminomethyl)-cyclohexaneacetic acid] |  |  | did not affect PWL | 30 |  | 10 | 30 |  | did not affect | 10 |  | neither of the compounds affected the early phase | 30 | 24 | 25 | 49 |  |  |  | 
4 | CN1CC[C@]23c4c5ccc(O)c4O[C@H]2[C@@H](O)C=C[C@H]3[C@H]1C5 [Morphine] |  |  |  | 1 |  |  |  |  |  |  |  |  |  |  |  |  | increased PWL of the contralateral paw | 24 | complete blockade of hyperalgesia | 3
